Experimental data from patent US20180000085A1, “USE OF PICOLINAMIDE COMPOUNDS WITH FUNGICIDAL ACTIVITY” (DOW AGROSCIENCES LLC, priority 2014, published 2018).

Legend:
Puccinia triticina = test: Wheat brown rust (PUCCRT) disease control on wheat seedlings; format: in vivo; parameters: key to PUCCRT 3DC, HV activity at 100 ppm (% control rating) / PUCCRT disease control, 3DC / PUCCRT 1DP disease control rating, HV activity / PUCCRT 3DC disease control rating, HV activity / PUCCRT 3DC, LV activity at 125.1 g/H (% Control rating) / PUCCRT 1DP, LV activity at 125.1 g/H (% Control rating) / PUCCRT 3DC disease control rating, LV activity at 125.1 g/H / PUCCRT 1DP disease control rating, LV activity at 125.1 g/H / PUCCRT 3DC disease control rating, HV activity at 100 ppm / PUCCRT 1DP disease control rating, HV activity at 100 ppm / HV activity at 100 ppm PUCCRT 3DC (disease control rating) / LV activity at 125.1 g/H PUCCRT 1DP (disease control rating) / LV activity at 125.1 g/H PUCCRT 3DC (disease control rating): A: > 80; B: ≤ 80; C: Not Tested; D: No Activity Observed in the Reported Assay; details: for PUCCRT 1DP disease control rating, LV activity at 125.1 g/H / PUCCRT 3DC disease control rating, LV activity at 125.1 g/H / LV activity at 125.1 g/H PUCCRT 1DP (disease control rating) / LV activity at 125.1 g/H PUCCRT 3DC (disease control rating): low volume application
Zymoseptoria tritici = test: Leaf blotch of wheat (SEPTTR) disease control on wheat seedlings; format: in vivo; parameters: key to SEPTTR 1DP, HV activity at 100 ppm (% control rating) / SEPTTR 3DC, HV activity at 100 ppm (% control rating) / SEPTTR disease control, 1DP / SEPTTR disease control, 3DC / SEPTTR 1DP disease control rating, HV activity / SEPTTR 3DC disease control rating, HV activity / SEPTTR 3DC, LV activity at 125.1 g/H (% Control rating) / SEPTTR 1DP, LV activity at 125.1 g/H (% Control rating) / SEPTTR 1DP disease control rating, LV activity at 125.1 g/H / SEPTTR 3DC disease control rating, LV activity at 125.1 g/H / SEPTTR 3DC disease control rating, HV activity at 100 ppm / SEPTTR 1DP disease control rating, HV activity at 100 ppm / HV activity at 100 ppm SEPTTR 3DC (disease control rating) / HV activity at 100 ppm SEPTTR 1DP (disease control rating) / LV activity at 125.1 g/H SEPTTR 1DP (disease control rating) / LV activity at 125.1 g/H SEPTTR 3DC (disease control rating): A: > 80; B: ≤ 80; C: Not Tested; D: No Activity Observed in the Reported Assay; details: for SEPTTR 1DP disease control rating, LV activity at 125.1 g/H / SEPTTR 3DC disease control rating, LV activity at 125.1 g/H / LV activity at 125.1 g/H SEPTTR 1DP (disease control rating) / LV activity at 125.1 g/H SEPTTR 3DC (disease control rating): low volume application
[1] = high volume application, 100 ppm, 1 day protectant
[2] = high volume application, 100 ppm, 3 day curative
[3] = 1 Day Protectant, wheat brown rust
[4] = 3 Day Curative, wheat brown rust
[5] = 1 Day Protectant, wheat leaf blotch
[6] = 3 Day Curative, wheat leaf blotch

SMILES	PUCCRT 1DP disease control rating, LV activity at 125.1 g/H (Puccinia triticina; 1 day protectant)	PUCCRT 3DC disease control rating, LV activity at 125.1 g/H (Puccinia triticina; 3 day curative)	SEPTTR 1DP disease control rating, LV activity at 125.1 g/H (Zymoseptoria tritici; 1 day protectant)	SEPTTR 3DC disease control rating, LV activity at 125.1 g/H (Zymoseptoria tritici; 3 day curative)	LV activity at 125.1 g/H PUCCRT 1DP (disease control rating) (Puccinia triticina; [3])	LV activity at 125.1 g/H PUCCRT 3DC (disease control rating) (Puccinia triticina; [4])	LV activity at 125.1 g/H SEPTTR 1DP (disease control rating) (Zymoseptoria tritici; [5])	LV activity at 125.1 g/H SEPTTR 3DC (disease control rating) (Zymoseptoria tritici; [6])	other results
COc1ccnc(C(=O)N[C@@H](C)C(=O)O[C@@H](C)[C@@H](OC)c2ccccc2)c1OC(C)=O [Cmpd 885]	D	A (> 80)	D	B (≤ 80)	–	–	–	–	–
COc1ccnc(C(=O)NC(C)C(=O)OC(C)C(Oc2ccc(Cl)cc2Cl)c2ccccc2)c1OCOC(C)=O (stereo not shown) [Cmpd 869]	A (> 80)	B (≤ 80)	A (> 80)	A (> 80)	–	–	–	–	–
CCC(C)C(Oc1ccccc1)C(C)OC(=O)C(C)NC(=O)c1nccc(OC)c1O (stereo not shown) [Cmpd 440]	–	–	–	–	–	–	–	–	PUCCRT 1DP disease control rating, HV activity (Puccinia triticina; HV application at 100 ppm, 1 Day Protectant, wheat brown rust): A (> 80); PUCCRT 3DC disease control rating, HV activity (Puccinia triticina; HV application at 100 ppm, 3 Day Curative, wheat brown rust): A (> 80); SEPTTR 1DP disease control rating, HV activity (Zymoseptoria tritici; HV application at 100 ppm, 1 Day Protectant, wheat leaf blotch): A (> 80); SEPTTR 3DC disease control rating, HV activity (Zymoseptoria tritici; HV application at 100 ppm, 3 Day Curative, wheat leaf blotch): A (> 80)
COc1ccnc(C(=O)NC(C)C(=O)OC(C)C(Oc2ccc(Cl)cc2Cl)c2ccccc2)c1OC(=O)C(C)C (stereo not shown) [Cmpd 868]	B (≤ 80)	B (≤ 80)	B (≤ 80)	B (≤ 80)	–	–	–	–	–
COc1ccnc(C(=O)N[C@@H](C)C(=O)O[C@@H](C)[C@H](Oc2ccccc2)c2ccc(F)cc2)c1O [Cmpd 848]	–	–	–	–	–	–	–	–	PUCCRT 1DP disease control rating, HV activity at 100 ppm (Puccinia triticina; [1]): A (> 80); PUCCRT 3DC disease control rating, HV activity at 100 ppm (Puccinia triticina; [2]): B (≤ 80); SEPTTR 1DP disease control rating, HV activity at 100 ppm (Zymoseptoria tritici; [1]): B (≤ 80); SEPTTR 3DC disease control rating, HV activity at 100 ppm (Zymoseptoria tritici; [2]): A (> 80)
COc1ccnc(C(=O)N[C@@H](C)C(=O)O[C@@H](C)[C@@H](OC(=O)c2ccccc2)C(C)C)c1OC(C)=O [Cmpd 856]	B (≤ 80)	B (≤ 80)	D	D	–	–	–	–	–
COc1ccnc(C(=O)N[C@@H](C)C(=O)O[C@@H](C)[C@H](OCC2CC2)C(C)(C)C)c1OC(C)=O [Cmpd 1071]	–	–	–	–	A (> 80)	A (> 80)	B (≤ 80)	B (≤ 80)	–
COc1ccnc(C(=O)N[C@@H](C)C(=O)O[C@@H](C)[C@@H](CC(C)C)Oc2cccc(Cl)c2)c1O [Cmpd 1050]	–	–	–	–	–	–	–	–	HV activity at 100 ppm PUCCRT 1DP (disease control rating) (Puccinia triticina; HV application, 100 ppm, 1 Day Protectant, wheat brown rust): A (> 80); HV activity at 100 ppm PUCCRT 3DC (disease control rating) (Puccinia triticina; HV application, 100 ppm, 3 Day Curative, wheat brown rust): A (> 80); HV activity at 100 ppm SEPTTR 1DP (disease control rating) (Zymoseptoria tritici; HV application, 100 ppm, 1 Day Protectant, wheat leaf blotch): A (> 80); HV activity at 100 ppm SEPTTR 3DC (disease control rating) (Zymoseptoria tritici; HV application, 100 ppm, 3 Day Curative, wheat leaf blotch): A (> 80)
C=CC[C@@H](OCC(=C)C)[C@H](C)OC(=O)[C@H](C)NC(=O)c1nccc(OC)c1OC(C)=O [Cmpd 1074]	–	–	–	–	D	B (≤ 80)	D	D	–
COc1ccnc(C(=O)NC(C(=O)OC(C)C(Oc2ccccc2)C(C)C)C(F)(F)F)c1OCOC(C)=O (mixture of isomers) [Cmpd 1073]	–	–	–	–	A (> 80)	A (> 80)	B (≤ 80)	B (≤ 80)	–
